Laboratory results taken from patent EP3720857B1, “2-OXO-5H-CHROMENO[4,3-B]PYRIDINES FOR USE IN THE TREATMENT OF HEPATITIS B” (Galapagos NV, priority 2017, dated 2019).

system: hepatitis virus B (HBV) infection; test: HepG2 NTCP assay (HBcAg staining as marker of HBV infection); assay type: cell-based; details: HepG2-NTCP cells infected with HBV, HBV core antigen (HBcAg) as marker of infection
How it was run: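 HepG2-NTCP cells were infected with HBV (4% PEG, 1% DMSO) in the presence of compound overnight, then re-dosed and incubated 5 days at 37 °C. HBcAg immunofluorescence was imaged, with DAPI nuclei count taken as toxicity. Ten-point 1/3 dilutions gave % inhibition against 0.2% DMSO vehicle and 100 nM Myrcludex B, with dose-response curves fitted.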

IC50, 0.001 to 1 nM:
COCCCOc1cc2c(cc1F)-c1c(cc(C(=O)O)c(=O)n1C1CC1)C(C(C)C)O2 (stereo not drawn) [Compound 1, 1-cyclopropyl-9-fluoro-5-isopropyl-8-(3-methoxypropoxy)-2-oxo-5H-chromeno[4,3-b]pyridine-3-carboxylic acid]
COCCCOc1cc2c(cc1F)-c1c(cc(C(=O)O)c(=O)n1C1CC1)[C@H](C(C)C)O2 [Compound 44, (5S)-1-cyclopropyl-9-fluoro-5-isopropyl-8-(3-methoxypropoxy)-2-oxo-5H-chromeno[4,3-b]pyridine-3-carboxylic acid]
CCC1Oc2cc(OCCCOC)c(F)cc2-c2c1cc(C(=O)O)c(=O)n2C1CC1 (stereo not drawn) [Compound 16, 1-cyclopropyl-5-ethyl-9-fluoro-8-(3-methoxypropoxy) -2-oxo-5H-chromeno[4,3-b]pyridine-3-carboxylic acid]
COCCCOc1cc2c(cc1Cl)-c1c(cc(C(=O)O)c(=O)n1C1CC1)CO2 [Compound 6, 9-chloro-1-cyclopropyl-8-(3-methoxypropoxy) -2-oxo-5H-chromeno[4,3-b]pyridine-3-carboxylic acid]
COCCCOc1cc2c(cc1Cl)-c1c(cc(C(=O)O)c(=O)n1C1CC1)[C@H](C1(C)COC1)O2 [Compound 46, (5R)-9-chloro-1-cyclopropyl-8-(3-methoxypropoxy)-5-(3-methyloxetan-3-yl)-2-oxo-5H-chromeno[4,3-b]pyridine-3-carboxylic acid]
COCCCOc1cc2c(cc1Cl)-c1c(cc(C(=O)O)c(=O)n1C1CC1)C(C(C)(C)COC)O2 (stereo not drawn) [Compound 19, 9-chloro-1-cyclopropyl-5-(2-methoxy-1,1-dimethyl-ethyl)-8-(3-methoxypropoxy) -2-oxo-5H-chromeno[4,3-b]pyridine-3-carboxylic acid]
